The conditions of data set [1]: rat, in vivo, ip. As to the method: At the times indicated in the table, the animals were anesthetized, exsanguinated and the peritoneal cavities lavaged three time with 20 ml phosphate-buffered saline. The lavage fluid was pooled and centrifuged at low speed. "Peritoneal fluid" refers to fluid lavaged and pooled from the peritoneal cavity and contains small sized vesicles. "Peritoneal pellet" refers to the pelleted portion of the lavaged peritoneal fluid, and contains cellular matter (predominately peritoneal macrophage) and large vesicles. The remaining tissues were collected, washed, blotted, weighed and distributed into tubes for gamma counting.

The format of data set [2] is physicochemical. The protocol: 3.9 ml of the Na-IBF solution is injected into each flask containing lipid film. The flasks are vortex-stirred for 40 to 60 minutes in a 65° C. water bath under nitrogen. (The nitrogen purge is first passed through a 0.22 micron filter.) To the contents of each flask is added sterile, pyrogen-free phosphate buffered saline, and the flasks are centrifuged for 6 to 10 minutes at 15,000 rpm. This washing procedure is repeated for a total of five times to remove unencapsulated Na-IBF. The contents of the flasks are then combined and PBS (5 mM PO4^3- in 0.15 N NaCl) is added to a total of 32 ml. The liposome suspension thus produced comprises ILDVs of about 1 micron or larger in size suspended in the PBS.

Like-named read-outs stand apart in the source and are kept apart here.

Regarding `O=C([O-])CN(CCN(CC(=O)[O-])CC(=O)[O-])CC(=O)[O-].[111In+3]` [^111 In-EDTA, Indium-III chelated to ethylenediamine tetracetic acid], the “Clearance after intraperitoneal injection” value in data set [1] was “rapid clearance from the peritoneal cavity and from the whole body”. The Feces in data set [1] (1 h) is reported as 4.6 % Inj. Dose; in data set [1] (2 h) it was “.02 % Inj. Dose”; in data set [1] (6 h), 7.6 % Inj. Dose; in data set [1] (24 h), 16.83 % Inj. Dose. Besides, the TOTAL came to 32.58 % Inj. Dose in data set [1] (1 h), 76.73 % Inj. Dose in data set [1] (2 h), 71.27 % Inj. Dose in data set [1] (6 h) and 33.91 % Inj. Dose in data set [1] (24 h). The Urine worked out at 19 % Inj. Dose in data set [1] (1 h), 73 % Inj. Dose in data set [1] (2 h), 60.2 % Inj. Dose in data set [1] (6 h) and 14.05 % Inj. Dose in data set [1] (24 h).
Regarding Sodium Ibuprofenate, in data set [2], the “Storage stability of liposome suspension” value is on record as “storage-stable for a period of several months”.

(Values after US4877619A, “Liposomal vesicles for intraperitoneal administration of therapeutic agents” (priority 1987, dated 1989).)
